Test results reported in patent US20230227466A1, “SUBSTITUTED THIENOPYRIMIDINES THAT INTERACT WITH THE RAS SUPERFAMILY FOR THE TREATMENT OF CANCERS, INFLAMMATORY DISEASES, RASOPATHIES, AND FIBROTIC DISEASE” (SHY Therapeutics, LLC, priority 2020, published 2023).

What was measured:
[1] = tested on: ERK1/2 phosphorylation in Panc-1 cells; experiment: Western ERK1/2 cell-based phosphorylation assay; design: species or system human; details: at 10 μM, values in brackets < > are activation %, not inhibition
How it was run: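 Panc-1 cells starved overnight in 0.5% FBS, then exposed 6 h at 37 °C to compound at 10 μM final (0.3% DMSO) or serial dilutions for IC50. Stimulation with 1.5 ng/ml EGF for 15 min; phospho-ERK1/2 (Thr202/Tyr204) read by western blot on equal protein loads.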

[2] = tested on: Akt phosphorylation in Panc-1 cells; experiment: Western AKT cell-based phosphorylation assay; design: species or system human; details: at 10 μM, values in brackets < > are activation %, not inhibition
How it was run: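 Panc-1 cells starved overnight in 0.5% FBS, exposed to compound at 10 μM (0.3% DMSO) for 6 h at 37° C, then stimulated with 1.5 ng/ml EGF for 15 min. Lysates probed by western blot with anti-phospho-Akt (Ser473), equal protein loading checked by Ponceau S.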

[3] = Kinetic solubility assay; format: physicochemical; details: phosphate-buffered saline pH 7.4 with 2% DMSO, aqueous buffer, kinetic from dmso stock; pH 7.4 PBS + 2% DMSO, 25° C., two hours; effective range approximately 2-400 μM
Experimental: Equipment: Water purification system Millipore Milli-Q Gradient A10 (Millipore, France); Thermomixer R Block, 1.5 ml (Eppendorf, Germany; Cat #5355); Matrix Multichannel Electronic Pipette 2-125 μL, 5-250 μL, 15-1250 μL (Thermo Scientific, USA; Cat ##2011, 2012, 2004); SpectraMax Plus Microplate Reader (Molecular Devices, USA; Product #02196); Multi-Well Plate Vacuum Manifold (Pall Corporation, USA; Product #5014); and Vacuum pump (Millipore, USA; Model #XX5500000)
Analytical System: The measurements were performed using SpectraMax Plus reader in UV-Vis mode. Acquisition and analysis of the data were performed using SoftMax Pro v.5.4 (Molecular Devices) and Excel 2010 data analysis software.
Methods: Briefly, using a 20 mM stock solution of the compound in 100% DMSO dilutions were prepared to a theoretical concentration of 400 μM in duplicates in phosphate-buffered saline pH 7.4 (138 mM NaCl, 2.7 mM KCl, 10 mM K-phosphate) with 2% final DMSO. The experimental compound dilutions in PBS were further allowed to equilibrate at 25° C. on a thermostatic shaker for two hours and then filtered through HTS filter plates using a vacuum manifold. The filtrates of test compounds were diluted 2-fold with acetonitrile with 2% DMSO before measuring.
In parallel, compound dilutions in acetonitrile/PBS (1:1) were prepared to theoretical concentrations of 0 μM (blank), 10 μM, 25 μM, 50 μM, 100 μM, and 200 μM with 2% final DMSO to generate calibration curves. Ondansetron was used as reference compound to control proper assay performance. 200 μL of each sample was transferred to 96-well plate and measured in 200-550 nm range with 5 nm step.
The concentrations of compounds in PBS filtrate are calculated using a dedicated Microsoft Excel calculation script. Proper absorbance wavelengths for calculations are selected for each compound manually based on absorbance maximums (absolute absorbance unit values for the minimum and maximum concentration points within 0-3 OD range). Each of the final datasets is additionally visually evaluated by the operator and goodness of fit (R2) is calculated for each calibration curve. […] This method is not suitable for liquid (at 25° C.) substances (were not present among the tested compounds). Table 3A provides the kinetic solubility for some of the exemplified compounds.

Row | solubility kinetic at 2 h [3] | Compound | % inh of ERK1/2 phosphorylation in PANC-1 [1] | % inh of AKT phosphorylation in PANC-1 [2]
1 | 82 µM | COC1CCCN(c2nc(-c3nccn3C)nc3sc(-c4ccn(C(C)C)n4)c(C)c23)C1 (racemic) [Compound 40, rac-6-(1-Isopropyl-1H-pyrazol-3-yl)-4-(3-methoxypiperidin-1-yl)-5-methyl-2-(1-methyl-1H-imidazol-2-yl)thieno[2,3-d]pyrimidine] | D (76-100% inhibition) | D (76-100% inhibition)
2 | 79 µM | CO[C@H]1CC[C@@H](Nc2nc(-c3ccccn3)nc3sc(-c4ccn(C(C)C)n4)c(C)c23)C1 (racemic) [Compound 69, Rac-6-(1-isopropyl-1H-pyrazol-3-yl)-N-((1R,3S)-3-methoxycyclopentyl)-5-methyl-2-(pyridine-2-yl)thieno[2,3-d]pyrimidin-4-amine] | D (76-100% inhibition) | D (76-100% inhibition)
3 | 4 µM | COc1cc(Nc2nc(-c3nccn3C)nc3sc(-c4ccn(C(C)C)n4)c(C)c23)ncn1 [Compound 66, 6-(1-Isopropyl-1H-pyrazol-3-yl)-N-(6-methoxypyrimidin-4-yl)-5-methyl-2-(1-methyl-1H-imidazol-2-yl)thieno[2,3-d]pyrimidin-4-amine] | 0 (0% inhibition) | B (26-50% inhibition)
